Measurements: US8940769B2, “Biaryl benzoimidazole derivatives and pharmaceutical composition comprising the same” (Daewoong Pharmaceutical Co., Ltd., priority 2006, dated 2015)

Target: T1, human vanilloid receptor VR-1 (hVR1) (Homo sapiens, UniProt Q8NER1)
T1 construct: expressed in transfected cells; host or cells: HEK293 Tet-on cells (hVR1-HEK293), expression induced with doxycycline
Assay: Calcium influx test of vanilloid receptor (capsaicin-induced, Fluo-3/AM, hVR1-HEK293 cells)
Type: cell-based
Conditions: for inhibition at 0.2 µM / Inhibitory effect (%) on calcium influx: single concentration of compound 200 nM, 1 μM capsaicin; for inhibition at 0.2 µM: read-out: Inhibitory effect (%) on calcium influx; for IC50: calcium influx induced by 1 μM capsaicin, read-out: Inhibitory effect IC50 (nM) on calcium influx
Experimental: In order to measure an activity of the biaryl benzoimidazole derivative of the invention as an antagonist, a calcium influx test was performed.
An hVR1-HEK293 cell line is a cell line, in which a Human Embryonic Kidney (HEK) 293 Tet-on cell is transformed with a human vanilloid-1 gene (pTRE2hyg-hVR1, 7.8 kb). The cell line can regulate a VR-1 expression, depending on the administration of a tetracycline analogue, doxycycline. At two days before the calcium influx test, the cell line was cultured in media containing doxycycline to induce the VR-1 expression, and then used. First, the hVR1-HEK293 cells were cultured in T75 flasks to have a density of about 80%, and then detached from the bottom of the flasks by using trypsin. The detached cells were centrifuged and collected. Then, the cells were suspended in media containing 1 μg/mL doxycycline, and diluted to have a concentration of 2×10^5 to 4×10^5 cells/mL. 100 μL of the suspended cells were added to each well of 96-well black plate, cultured at 37° C. and 5% CO2 cell incubator for two days, and then used in the calcium influx test.
The compound was dissolved in dimethyl sulfoxide (DMSO), and then used for the calcium influx test.
In order to measure the calcium influx […], the cells were cultured in a solution containing Fluo-3/AM, which is a calcium indicator, at 37° C. for 90 minutes, so as to be permeated by a fluorescent dye. […] 193 μL D-PBS were added to each well, and then the compound was added thereto in various concentrations. To measure an activity as an antagonist, the cells were treated with 1 μM capsaicin to stimulate the calcium influx. The inhibitory effect of the compound when calcium influx was induced by 1 μM capsaicin was measured depending on its concentration using a fluorescence spectrometer, and the obtained data were substituted into a hill equation to analyze the values.
The inhibitory effect on calcium influx was measured with a single concentration of the compounds of the invention (200 nM), and the result thereof are shown in Table 2.

T1 sequence (Q8NER1 whole entry): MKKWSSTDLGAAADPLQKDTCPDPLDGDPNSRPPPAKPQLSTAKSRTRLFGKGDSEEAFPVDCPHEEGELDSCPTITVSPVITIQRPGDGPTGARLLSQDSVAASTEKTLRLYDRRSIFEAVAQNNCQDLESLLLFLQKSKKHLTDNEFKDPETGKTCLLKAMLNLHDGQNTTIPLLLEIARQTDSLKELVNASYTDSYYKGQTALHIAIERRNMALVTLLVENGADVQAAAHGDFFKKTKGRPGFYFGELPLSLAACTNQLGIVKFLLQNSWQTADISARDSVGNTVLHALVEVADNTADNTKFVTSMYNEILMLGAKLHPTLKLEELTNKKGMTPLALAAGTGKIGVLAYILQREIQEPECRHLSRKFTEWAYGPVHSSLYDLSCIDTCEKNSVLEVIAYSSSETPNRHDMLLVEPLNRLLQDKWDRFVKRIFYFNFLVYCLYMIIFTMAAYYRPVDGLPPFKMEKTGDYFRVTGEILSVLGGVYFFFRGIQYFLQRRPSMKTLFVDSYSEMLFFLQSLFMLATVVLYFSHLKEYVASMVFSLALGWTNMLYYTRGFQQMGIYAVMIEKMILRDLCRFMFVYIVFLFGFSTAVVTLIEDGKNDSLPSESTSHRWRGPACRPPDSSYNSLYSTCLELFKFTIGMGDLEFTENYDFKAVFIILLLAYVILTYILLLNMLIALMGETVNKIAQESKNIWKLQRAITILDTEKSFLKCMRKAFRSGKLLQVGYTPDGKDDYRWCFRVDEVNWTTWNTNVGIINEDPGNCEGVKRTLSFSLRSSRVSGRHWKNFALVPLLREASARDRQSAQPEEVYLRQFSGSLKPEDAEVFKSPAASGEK

inhibition at 0.2 µM | IC50 | Inhibitory effect (%) on calcium influx | Compound
27.8% | 171 nM |  | OCc1cnc(-c2ccc(-c3nc4ccc(Br)cc4[nH]3)cc2)c(Cl)c1 [Compound 30, {6-[4-(6-bromo-1H-benzoimidazol-2-yl)-phenyl]-5-chloro-pyridin-3-yl}-methanol]
1.7% |  |  | OCc1cnc(-c2ccc(-c3nc4ncc(Br)cc4[nH]3)cc2)c(Cl)c1 [Compound 31, {6-[4-(6-bromo-1H-imidazo[4,5-b]pyridin-2-yl)-phenyl]-5-chloro-pyridin-3-yl}-methanol]
4.7% |  |  | OCc1cnc(-c2ccc(-c3nc4c(Br)cc(Br)cc4[nH]3)cc2)c(Cl)c1 [Compound 33, {5-chloro-6-[4-(4,6-dibromo-1H-benzoimidazol-2-yl)-phenyl]-pyridin-3-yl}-methanol]
3.1% |  |  | C=Cc1cnc(-c2ccc(-c3nc4ccc(Br)cc4[nH]3)cc2)c(Cl)c1 [Compound 39, 6-bromo-2-[4-(3-chloro-5-vinyl-pyridin-2-yl)-phenyl]-1H-benzoimidazole]
-3.1% |  |  | O=C(O)c1cnc(-c2ccc(-c3nc4ccc(C(F)(F)F)cc4[nH]3)cc2)c(Cl)c1 [Compound 43, 5-chloro-6-[4-(6-trifluoromethyl-1H-benzoimidazol-2-yl)-phenyl]-nicotinic acid]
-1% |  |  | CC(C)(C)c1ccc2nc(-c3ccc(-c4ncc(C(=O)O)cc4Cl)cc3)[nH]c2c1 [Compound 44, 6-[4-(6-tert-butyl-1H-benzoimidazol-2-yl)-phenyl]-5-chloro-nicotinic acid]
3.3% |  |  | O=C(O)c1cnc(-c2ccc(-c3nc4ccc(Br)cc4[nH]3)cc2)c(Cl)c1 [Compound 45, 6-[4-(6-bromo-1H-benzoimidazol-2-yl)-phenyl]-5-chloro-nicotinic acid]
7.2% |  |  | O=C(O)c1cnc(-c2ccc(-c3nc4ncc(Br)cc4[nH]3)cc2)c(Cl)c1 [Compound 46, 6-[4-(6-bromo-1H-imidazo[4,5-b]pyridin-2-yl)-phenyl]-5-chloro-nicotinic acid]
5.7% |  |  | O=C(O)c1cnc(-c2ccc(-c3nc4c(Br)cc(C(F)(F)F)cc4[nH]3)cc2)c(Cl)c1 [Compound 47, 6-[4-(4-bromo-6-trifluoromethyl-1H-benzoimidazol-2-yl)-phenyl]-5-chloro-nicotinic acid]
1.1% |  |  | COC(=O)c1cnc(-c2ccc(-c3nc4ncc(Br)cc4[nH]3)cc2)c(Cl)c1 [Compound 51, 6-[4-(6-bromo-1H-imidazo[4,5-b]pyridin-2-yl)-phenyl]-5-chloro-nicotinic acid methyl ester]
 |  | 0.9% | CC(=O)OCc1cnc(-c2ccc(-c3nc4ccc(Br)cc4[nH]3)cc2)c(Cl)c1 [Compound 55, acetic acid 6-[4-(6-bromo-1H-benzoimidazol-2-yl)-phenyl]-5-chloro-pyridin-3-yl methyl ester]
 |  | 6.5% | CC(=O)OCc1cnc(-c2ccc(-c3nc4ncc(Br)cc4[nH]3)cc2)c(Cl)c1 [Compound 56, acetic acid 6-[4-(6-bromo-1H-imidazo[4,5-b]pyridin-2-yl)-phenyl]-5-chloro-pyridin-3-yl methyl ester]
38.3% | 397 nM |  | CCNC(=O)c1cnc(-c2ccc(-c3nc4ccc(Br)cc4[nH]3)cc2)c(Cl)c1 [Compound 63, 6-[4-(6-bromo-1H-benzoimidazol-2-yl)-phenyl]-5-chloro-N-ethyl-nicotinamide]
11.1% |  |  | CCNC(=O)c1cnc(-c2ccc(-c3nc4ncc(Br)cc4[nH]3)cc2)c(Cl)c1 [Compound 64, 6-[4-(6-bromo-1H-imidazo[4,5-b]pyridin-2-yl)-phenyl]-5-chloro-N-ethyl-nicotinamide]

The next lines start with the molecule.

Compound | inhibition at 0.2 µM | IC50 | Inhibitory effect (%) on calcium influx
OCc1cnc(-c2ccc(-c3nc4ccc(N5CCOCC5)cc4[nH]3)cc2)c(Cl)c1 [Compound 26, {5-chloro-6-[4-(6-morpholin-4-yl-1H-benzoimidazol-2-yl)-phenyl]-pyridin-3-yl}-methanol] | 5% |  | 
CN1CCN(c2ccc3nc(-c4ccc(-c5ncc(CO)cc5Cl)cc4)[nH]c3c2)CC1 [Compound 27, (5-chloro-6-{4-[6-(4-methyl-piperazin-1-yl)-1H-benzoimidazol-2-yl]-phenyl}-pyridin-3-yl)-methanol] | 4% |  | 
OCc1cnc(-c2ccc(-c3nc4ccc(C(F)(F)F)cc4[nH]3)cc2)c(Cl)c1 [Compound 28, {5-chloro-6-[4-(6-trifluoromethyl-1H-benzoimidazol-2-yl)-phenyl]-pyridin-3-yl}-methanol] | 2.8% | 181 nM | 
OCc1cnc(-c2ccc(-c3nc4c(Br)cc(C(F)(F)F)cc4[nH]3)cc2)c(Cl)c1 [Compound 32, {6-[4-(4-bromo-6-trifluoromethyl-1H-benzoimidazol-2-yl)-phenyl]-5-chloro-pyridin-3-yl}-methanol] | 6% |  | 
FC(F)(F)c1ccc2nc(-c3ccc(-c4ncc(CBr)cc4Cl)cc3)[nH]c2c1 [Compound 34, 2-[4-(5-bromomethyl-3-chloro-pyridin-2-yl)-phenyl]-6-trifluoromethyl-1H-benzoimidazole] | 13% |  | 
CC(C)(C)c1ccc2nc(-c3ccc(-c4ncc(CBr)cc4Cl)cc3)[nH]c2c1 [Compound 35, 2-[4-(5-bromomethyl-3-chloro-pyridin-2-yl)-phenyl]-6-tert-butyl-1H-benzoimidazole] | 59.6% |  | 
Clc1cc(CBr)cnc1-c1ccc(-c2nc3ccc(Br)cc3[nH]2)cc1 [Compound 36, 6-bromo-2-[4-(5-bromomethyl-3-chloro-pyridin-2-yl)-phenyl]-1H-benzoimidazole] | 9.6% |  | 
C=Cc1cnc(-c2ccc(-c3nc4ccc(C(F)(F)F)cc4[nH]3)cc2)c(Cl)c1 [Compound 37, 2-[4-(3-chloro-5-vinyl-pyridin-2-yl)-phenyl]-6-trifluoromethyl-1H-benzoimidazole] | 5.3% |  | 
C=Cc1cnc(-c2ccc(-c3nc4ccc(C(C)(C)C)cc4[nH]3)cc2)c(Cl)c1 [Compound 38, 6-tert-butyl-2-[4-(3-chloro-5-vinyl-pyridin-2-yl)-phenyl]-1H-benzoimidazole] | 11.7% |  | 
C=Cc1cnc(-c2ccc(-c3nc4c(Br)cc(C(F)(F)F)cc4[nH]3)cc2)c(Cl)c1 [Compound 41, 4-bromo-2-[4-(3-chloro-5-vinyl-pyridin-2-yl)-phenyl]-6-trifluoromethyl-1H-benzoimidazole] | -2.1% |  | 
C=Cc1cnc(-c2ccc(-c3nc4ccc(Cl)cc4[nH]3)cc2)c(Cl)c1 [Compound 42, 6-chloro-2-[4-(3-chloro-5-vinyl-pyridin-2-yl)-phenyl]-1H-benzoimidazole] | 0.9% |  | 
COC(=O)c1cnc(-c2ccc(-c3nc4c(Br)cc(C(F)(F)F)cc4[nH]3)cc2)c(Cl)c1 [Compound 52, 6-[4-(4-bromo-6-trifluoromethyl-1H-benzoimidazol-2-yl)-phenyl]-5-chloro-nicotinic acid methyl ester] | 20% |  | 
CC(=O)OCc1cnc(-c2ccc(-c3nc4ccc(C(C)(C)C)cc4[nH]3)cc2)c(Cl)c1 [Compound 54, acetic acid 6-[4-(6-tert-butyl-1H-benzoimidazol-2-yl)-phenyl]-5-chloro-pyridin-3-yl methyl ester] | 14.6% | 319 nM | 
CC(=O)OCc1cnc(-c2ccc(-c3nc4c(Br)cc(C(F)(F)F)cc4[nH]3)cc2)c(Cl)c1 [Compound 57, acetic acid 6-[4-(4-bromo-6-trifluoromethyl-1H-benzoimidazol-2-yl)-phenyl]-5-chloro-pyridin-3-yl methyl ester] |  |  | 16.9%
O=Cc1cnc(-c2ccc(-c3nc4ccc(C(F)(F)F)cc4[nH]3)cc2)c(Cl)c1 [Compound 58, 5-chloro-6-[4-(6-trifluoromethyl-1H-benzoimidazol-2-yl)-phenyl]-pyridine-3-carbaldehyde] | 39.1% | 94.5 nM | 
CC(C)(C)c1ccc2nc(-c3ccc(-c4ncc(C=O)cc4Cl)cc3)[nH]c2c1 [Compound 59, 6-[4-(6-tert-butyl-1H-benzoimidazol-2-yl)-phenyl]-5-chloro-pyridine-3-carbaldehyde] | 82.5% | 29.5 nM | 
CCNC(=O)c1cnc(-c2ccc(-c3nc4ccc(C(F)(F)F)cc4[nH]3)cc2)c(Cl)c1 [Compound 61, 5-chloro-N-ethyl-6-[4-(6-trifluoromethyl-1H-benzoimidazol-2-yl)-phenyl]-nicotinamide] | 23.4% |  | 
CCNC(=O)c1cnc(-c2ccc(-c3nc4ccc(C(C)(C)C)cc4[nH]3)cc2)c(Cl)c1 [Compound 62, 6-[4-(6-tert-butyl-1H-benzoimidazol-2-yl)-phenyl]-5-chloro-N-ethyl-nicotinamide] | 54.3% | 126 nM | 
